Assay results: patent publication US4918061A, “Method of preventing diseases caused by gram-negative endotoxin in mammals” (priority 1988, dated 1990)

Legend:
[1] = Biological activity after removal of moieties of lipid X
[2] = test system: C57BL/10 mice; experiment: Toxicity of lipid X in mice; assay type: in vivo, mouse
Procedure: To test for the toxicity of lipid X in mice, C57BL/10 mice were challenged with 750, 2000 or 5000 μg of lipid X intraperitoneally (12 mice) or with 750, 1500 or 3000 μg intravenously (7 mice).

[3] = test system: sheep; experiment: Hemodynamic response and toxicity of lipid X in sheep; assay type: in vivo; conditions: 40 sheep injected with lipid X
Procedure: The hemodynamic response of sheep to lipid X has been studied (18). Essentially, the conclusions are that: 1) lipid X (40 μg/kg cumulative dose) causes a transient (3-5 min) increase in pulmonary arterial pressure, that may be attributed to prostaglandin release, or stimulated synthesis. […] The only significant symptoms observed after injection of lipid X alone are transient lethargy and shortness of breath (15-30 min), without significant distress or obvious adverse long-term consequences.
A period of transient pulmonary hypertension and slight short ness of breath subsides after 30 minutes. About 30 sheep were examined by Burhop with regard to lipid X toxicity.

[4] = test system: C57BL/10 mice; experiment: Protection of mice by lipid X against lethal endotoxemia; assay type: in vivo, mouse
Procedure: FIG. 4. […] Controls receiving no lipid X are shown at the left of each panel. The number of mice per group is either three or four, and is the sum of the dead and the living. The number of survivors is shown at the top of the panel. Each point represents the death of one mouse. When all individuals died the mean time of death is shown as a horizontal bar. […] Doses of lipid X were administered in 0.1 ml of physiological saline that had been titrated to pH 8 with Tris to dissolve the lipid.
(§1) Experimental Animals. Eight week old mice (strain C57BL/10) were purchased from Jackson Laboratories, Bar Harbor, ME. Mixed bred sheep weighing 30-70 kg were obtained from the University of Wisconsin Experimental Farms. Sheep were prepared as follows: at least 24 hours before each experiment catheters were percutaneously placed in the pulmonary artery. Any other catheterizations that were required for infusion were done at this time. All studies were performed on awake, unrestrained sheep placed in portable stanchions with food and water ad libitum. Electronically calculated pulmonary artery pressures as well as heart rates were recorded at various intervals on a Gilson polygraph (Gilson Instruments, Middleton, WI). To ensure a stable baseline prior to the injection of test compounds, approximately 1 hour of baseline measurements were recorded.
Mice were allowed to rest for at least 7 days following their arrival and were sexually segregated and housed at 5 per cage with food and water ad libitum. […] No more than 0.1 ml of fluid was injected at a time. Just prior to injection, the mice were lightly anesthetized with ether. Following the injection, mice were observed every 0.5-6 hours and the time of death was recorded.
The lethal dose of E. coli endotoxin was determined both for the intravenous and of the intraperitoneal challenge.
Mice were given 750 μg of lipid X from 24 hours prior to 6 hours after endotoxin challenge with 1-2 LD100 doses.

[5] = test system: sheep; experiment: Protection of sheep by lipid X against lethal effects of intravenous lipopolysaccharide; assay type: in vivo
Procedure: Preparation of E. coli lipid X. The 2,3-diacylglucosamine 1-phosphate (E. coli lipid X) was isolated from E. coli strain MN7 (ATCC #39328) as described previously (9). […] Stock solutions (1-10 mg/ml) are usually prepared in aqueous 1 mM EDTA titrated to pH 8 with Tris-free base. […] In experiments involving the use of mice, solid lipid X was first dissolved in 0.9% saline (instead of water) and titrated with Tris-free base to pH 8 in the same manner.
(§2) Stock solutions of 5 mg/ml were prepared in sterile 0.9% saline.
as §1

[6] = Solution behaviour of lipid X; assay type: physicochemical
Procedure: (§3) Preparation of E. coli lipid X. The 2,3-diacylglucosamine 1-phosphate (E. coli lipid X) was isolated from E. coli strain MN7 (ATCC #39328) as described previously (9). Lipid X obtained in this manner is a solid white powder. Stock solutions (1-10 mg/ml) are usually prepared in aqueous 1 mM EDTA titrated to pH 8 with Tris-free base. Other monovalent counter ions, such as (NH4)^+, Na^+, K^+, etc., may also be used, but divalent cations such as Mg^++ and Ca^++ cause the lipid to precipitate. […] In experiments involving the use of mice, solid lipid X was first dissolved in 0.9% saline (instead of water) and titrated with Tris-free base to pH 8 in the same manner.

[7] = Storage stability of lipid X stock solutions; assay type: physicochemical; conditions: stock solutions 5-10 mg/ml stored frozen at -20° C.
Procedure: as §3

[8] = test system: sheep; conditions: cited from earlier work
[9] = test system: B cell; conditions: cited from earlier work
[10] = test system: macrophages; conditions: cited from earlier work
[11] = test system: macrophage protein kinase C; conditions: cited from earlier work
[12] = test system: experimental tumors in guinea pigs; conditions: cited from earlier work
[13] = previous work; dependent on being given prior to or very shortly after LPS challenge; cited from earlier work
[14] = test system: sheep; experiment: Lethality and clinical toxicity of intravenous lipopolysaccharide in sheep; conditions: usually the result of disseminated intravascular coagulopathy
Procedure: as §2, §1

[15] = sheep, pretreatment with lipid X
[16] = lipid X by itself 40-1000 μg/kg

CCCCCCCCCCCC(O)CC(=O)N[C@H]1[C@@H](OP(=O)(O)O)O[C@H](CO)[C@@H](O)[C@@H]1O (stereo partly drawn) [N-monoacyl glucosamine 1-phosphate]
biological activity after removal of the ester linked β-hydroxymyristoyl moiety ([1]; mild alkali treatment of lipid X): biologically inert

CCCCCCCCCCCC(O)CC(=O)N[C@H]1C(O)O[C@H](CO)[C@@H](O)[C@@H]1OC(=O)CC(O)CCCCCCCCCCC (stereo partly drawn) [dephospho-X]
biological activity after removal of the phosphate moiety ([1]; mild acid treatment of lipid X, may be due to inherent solubility of dephospho-X): reduces biological activity

CCCCCCCCCCCC(O)CC(=O)N[C@H]1[C@@H](OP(=O)(O)O)O[C@H](CO)[C@@H](O)[C@@H]1OC(=O)CC(O)CCCCCCCCCCC (stereo partly drawn) [lipid X, 2,3-diacylglucosamine 1-phosphate]
survival after lipid X challenge ([2]; 750, 2000 or 5000 μg intraperitoneally (12 mice) or 750, 1500 or 3000 μg intravenously (7 mice)): All these mice lived | toxicity of lipid X ([2]; mice): nontoxic in mice | adverse complications of lipid X administration [3]: no serious adverse complications | last death after challenge ([4]; 750 μg lipid X intravenously, 250 or 500 μg endotoxin intravenously): ≤ 5 days | mortality of group receiving lipid X shortly after endotoxin challenge ([4]; both challenge doses, versus the group on either side): higher mortality than the group on either side | onset and duration of protection against lipopolysaccharide ([4]; compared with classical tolerance, which does not appear for many days): immediate and wears off after several hours | survival of mice ([4]; lipid X (750 μg intravenously) from 1 hour prior to through 4 hours post LPS challenge, 250 μg endotoxin): 81% | survival of mice ([4]; lipid X from 6 hours prior to endotoxin challenge through 1 hour after LPS challenge, intravenous, printed 500 μg lipid X): Forty-one | prolongation of time to death ([4]; lipid X intraperitoneally 2 hours before 1500 μg endotoxin (3 times LD100) intraperitoneally, data not shown): four | time to death ([4]; lipid X intraperitoneally 2 hours before 1500 μg endotoxin, about 20 hours without lipid X, data not shown): ~80 h | resistance to the lethal effects of gram-negative endotoxin ([4]; mice, pretreatment with lipid X): immediately resistant to the lethal effects | prevention of lethal endotoxicity when given after lipopolysaccharide ([4]; mouse, lipid X given 4 hours after lipopolysaccharide): appears to prevent lethal endotoxicity even when given 4 hours after lipopolysaccharide | Survivors ([5]; lipid X 50 μg/kg 1 hour prior to endotoxin, lipopolysaccharide 20 μg/kg): 1/2 | Survivors ([5]; lipid X 100 μg/kg 15 min. prior to endotoxin, lipopolysaccharide 10 μg/kg): 3/3 | Survivors ([5]; lipid X 100 μg/kg 1 hour prior to endotoxin, lipopolysaccharide 20 μg/kg): 4/4 | Survivors ([5]; lipid X 200 μg/kg 1 hour prior to endotoxin, lipopolysaccharide 20 μg/kg): 3/3 | survival of subsequent LPS challenge ([5]; sheep receiving 100-200 μg/kg lipid X during the pretreatment period): all the sheep receiving 100-200 μg/kg of lipid X during the pretreatment period survived | excess of lipid X over LPS required to ensure survival ([5]; sheep, on a weight basis): 5-10 fold | effect on pulmonary hypertension or fever induced by LPS [5, 15]: does not prevent pulmonary hypertension or fever | effect on serious clinical symptoms (shortness of breath, weakness, diarrhea, etc.) [5, 15]: alleviates some of the serious clinical symptoms | resistance to the lethal effects of gram-negative endotoxin [5, 15]: immediately resistant to the lethal effects | behaviour with divalent cations ([6]; Mg^++ and Ca^++): precipitate | solution behaviour in Tris-EDTA ([6]; pH 8, stock solutions 1-10 mg/ml): forms a clear viscous solution | solubility in water ([6]; water): limited solubility | storage stability [7]: many months without evidence of significant deterioration | duration of transient increase in pulmonary arterial pressure ([8]; lipid X 40 μg/kg cumulative dose): 3 to 5 min | duration of pulmonary hypertension ([8]; lipid X 500-1000 μg/kg intravenously): 5 to 10 min | duration of transient lethargy and shortness of breath ([8]; lipid X alone): 15 to 30 min | marked illness or fever [8, 16]: does not create marked illness or fever | time for transient pulmonary hypertension and slight shortness of breath to subside [8, 16]: 30 min | increased permeability of the pulmonary circulation ([8]; lipid X, compared to endotoxin): to a very mild degree compared to endotoxin | delay between injection and increase of pulmonary arterial pressure ([8]; lipid X): no delay | life-threatening pulmonary edema ([8]; lipid X): does not develop | terminal endotoxemia ([8]; very high doses of lipid X): fails to cause terminal endotoxemia | B cell mitogen [9]: B cell mitogen | macrophage activation with release of prostaglandin E2 [10]: capable of activating macrophages with release of protaglandin E2 | activation of macrophage protein kinase C [11]: can activate macrophage protein kinase C | regression of experimental tumors [12]: capable of inducing regression of experimental tumors in guinea pigs

C=CCN1CC[C@]23c4c5ccc(O)c4O[C@H]2C(=O)CC[C@@]3(O)[C@H]1C5 [naloxone]
prevention of the complications of lipopolysaccharide injection [13]: limited prevention of the complications

lipid A
time of death after injection (occasional) [14]: 1-2 weeks
